Where no end group is shown, it is not given here.

Series [1] concerns the target T1, GLP-1 receptors (RINm5f cell membranes) (Rattus norvegicus, UniProt P32301).
T1 construct: RINm5f cells expressing endogenous GLP-1 receptors; endogenous in cells; host or cells: RINm5f cell membranes
T1 sequence (P32301 22-463): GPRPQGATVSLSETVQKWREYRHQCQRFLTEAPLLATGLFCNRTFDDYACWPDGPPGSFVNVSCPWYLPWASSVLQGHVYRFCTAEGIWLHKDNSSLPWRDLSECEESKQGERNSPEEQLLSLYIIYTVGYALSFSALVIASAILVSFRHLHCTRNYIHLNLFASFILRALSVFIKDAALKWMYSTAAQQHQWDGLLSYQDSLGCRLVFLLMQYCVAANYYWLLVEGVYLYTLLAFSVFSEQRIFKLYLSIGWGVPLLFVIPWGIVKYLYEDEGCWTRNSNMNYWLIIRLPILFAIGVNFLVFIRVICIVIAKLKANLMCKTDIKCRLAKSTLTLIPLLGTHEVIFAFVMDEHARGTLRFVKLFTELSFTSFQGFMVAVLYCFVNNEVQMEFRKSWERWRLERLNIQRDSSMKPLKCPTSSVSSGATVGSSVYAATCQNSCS
Description: Receptor binding assay, RBA GLP (RIN). Conditions: [125I] human GLP-1 displacement. From the text:
The well contents are harvested onto 96 well glass fiber plates using a Perkin Elmer plate harvestor. Dried glass fiber plates are combined with scintillant and counted on a Perkin Elmer scintillation counter.

Series [2] has as its system GLP/GIP/CT cyclase, RIN-m5F cells. Description: GLP/GIP/CT Cyclase (RIN) assay. Type of series: cell-based, rat. Conditions: cAMP, values without **. The procedure:
GLP/GIP/CT Cyclase (RIN) Assay
Five μl of serially diluted peptides are transferred to the 384-well assay plate. Rat pancreas insulinoma cells (RIN-m5F) are detached from a tissue culture flask with Versene and washed once in buffer. Then RIN-m5F cells are resusupended in buffer at 2.5×10^6 cells/ml. Then 10 μl cells (2.5×10^4 cells) are added to all wells of the assay plate and cells are stimulated at room temperature in the dark for 30 minutes. The reaction is terminated with 10 μl of lysis buffer and incubated at room temperature for 4 hrs in the dark. cAMP content is measured using Perkin Elmer AlphaScreen™ cAMP assay kit and results are read on a Perkin Elmer Fusion fluorometer. The assay is completed in 384-well plates at 25 microliter volumes.

A further series can be described thus: Plasma stability. Type of series: in vitro ADME. Conditions: 20 μg/mL in plasma, 37° C., 0-5 hours. In short, it runs like this:
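Quantification by LC-MS after MeOH quench (sample:MeOH 1:4) and centrifugation. Samples came from plasma spiked at 20 μg/mL and held at 37° C, taken at 0, 1, 2, 3, 4 and 5 h, each in triplicate.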

A further series relates to NH/Swiss mice. Description: Glucose lowering assay. Type of series: in vivo, mouse. Conditions: IP. The procedure: Female NH/Swiss mice (˜8-20 weeks of age), (Harlan, Indianapolis, Ind., USA), housed 3 mice per cage, are allowed ad libitum access to food and water until the start of the experiment. At two hours prior to treatment, access to food is restricted.
At the time of treatment, the tip of the tail is pricked with a needle to obtain 1 μl blood as a “pre-treatment” control blood sample. Immediately thereafter, each mouse is injected intraperitoneally (IP) with a test sample (1 nmol/kg or 2 nmol/kg) or 200 μl vehicle (10% DMSO saline). Additional blood samples are collected at 30, 60, 120, 180, and 240 minutes after injection.
Blood glucose is measured with a glucose oxidase biosensor (OneTouch® Ultra® (LifeScan, Inc., a Johnson & Johnson Company, Milpitas, Calif.)). At each time point, the effect of the test sample is expressed as the percent change in blood glucose relative to mice injected with vehicle only. Test samples and vehicle controls are also compared to their respective “pre-treatment” controls.
Significant test sample effects are identified by ANOVA (p<0.05). Where a significant difference existed, test means are compared to the control mean with Dunnett's post test using GraphPad Prism version 4.00 for Windows, GraphPad Software, San Diego Calif. USA, www.graphpad.com).

The subject of a further series is NIH:Swiss mice. The series can be described thus: Food intake assay. Format: in vivo, mouse. Conditions: IP. The procedure: All mice (NIH:Swiss mice) are housed in a stable environment of 22 (±2)° C., 60 (±10)% humidity and a 12:12 light:dark cycle; with lights on at 0300. Mice are housed in groups of three in standard cages with ad libitum access to food (Teklad: LM 485; Madison, Wis.) and water except as noted, for at least two weeks before the experiments.
All experiments are conducted between the hours of 0700 and 0900. The mice are food deprived (food removed at 1530 hr from all animals on day prior to experiment). […] The food pellet is weighed at 30-minute, 1-hr, and 2-hr intervals to determine the amount of food eaten.
Significant test sample effects are identified by ANOVA (p<0.05). Where a significicant difference exists, test means are compared to the control mean using Dunnett's test. One-way ANOVA with Dunnett's post test is performed using GraphPad Prism version 3.01 for Windows, GraphPad Software, San Diego Calif.

In series [3] the test system is Sprague Dawley rats with MI-induced CHF. Description: MI-induced CHF animal model. Conditions: subcutaneous infusion 11 weeks. Type of series: in vivo, rat. The procedure: Sprague Dawley rats undergo left coronary artery ligation to induce myocardial infarction (MI) and subsequently congestive heart failure. Some rats undergo sham surgery. Starting two weeks after coronary ligation, rats are treated with GLP-1 (2.5 or 25 pmol/kg/min), [Leu^14]-Exendin-4 amide (1.67 or 5 pmol/kg/min) or vehicle for 11 weeks via subcutaneous infusion. Cardiac function and remodeling are assessed by echocardiography. At the end of study, rats undergo treadmill testing, hemodynamic measurements and fasting (12 hour fasting) insulin and glucose concentration were measured and the Homeostasis Model Assessment (HOMA), a major index for insulin resistance, is calculated. Peak Oxygen uptake during exercise is measured by indirect calorimetry.
Transthoracic Doppler echocardiography is performed. Briefly, short-axis images are obtained at the papillary muscle level and 2D guided M-mode tracing are recorded at a speed of 100 mm/s. Left ventricular end-diastolic (LVEDD) and end-systolic dimensions (LVESD) are measured according the American Society for Echocardiography leading-edge method. Left atrial volume (LAV) and ejection fraction (LVEF) are measured and calculated from the long-axis view.
Pulsed-wave Doppler spectra of mitral inflow are obtained from apical 5-chamber view. The sample volume is placed at the tip of the mitral leaflets and adjusted to the position of maximal velocity. The peak of early (E) and late filling waves (A) are measured and E/A ratio are calculated. […] FIG. 2A-C. […]
Designations “L” and “H” indicate low and high dose of drug, respectively. […] The end point for treadmill test is determined by rat's inability to keep the pace of treadmill and land on the electric shock grid for over 6 seconds. The exercise capacity (EC) is calculated as EC (kgm)=Body weight (kg)×degree of grade×running distance. Oxygen consumption (VO2), carbon dioxide production (VCO2) are measured as described. Within 1 minute after the treadmill test, plasma lactate and glucose are measured. The treadmill test is run and analyzed by one investigator who is blinded to the study.

Series [4] deals with T2, GLP-1 receptor, endogenous in RINm5f cells (rat (RIN-m5F are called rat pancreas insulinoma cells)), P32301.
T2 chain: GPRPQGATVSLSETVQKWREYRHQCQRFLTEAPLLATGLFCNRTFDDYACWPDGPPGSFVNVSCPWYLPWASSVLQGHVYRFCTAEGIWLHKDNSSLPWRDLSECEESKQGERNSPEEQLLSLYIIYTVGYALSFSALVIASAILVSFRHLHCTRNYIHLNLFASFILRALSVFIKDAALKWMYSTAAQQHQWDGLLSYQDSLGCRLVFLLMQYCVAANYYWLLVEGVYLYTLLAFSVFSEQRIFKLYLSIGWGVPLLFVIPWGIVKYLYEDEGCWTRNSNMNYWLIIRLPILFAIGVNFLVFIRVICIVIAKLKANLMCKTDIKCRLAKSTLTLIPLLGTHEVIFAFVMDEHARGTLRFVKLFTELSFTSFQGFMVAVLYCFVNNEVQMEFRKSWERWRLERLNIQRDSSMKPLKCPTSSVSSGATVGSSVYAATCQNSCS
The series can be described thus: cell-based or functional assay.

Series [5] has as its target T2, GLP-1 receptor, endogenous in RINm5f …. Description: 125I-GLP-1 displacement, RINm5f membranes.

For “HGEGTFTSDVTEYLEEEAVRLFIEWLKQGGPSSGAPPPS-NH2 [Cmpd 5129]”, the IC50 (commonly the concentration that gives 50% inhibition) in series [1] amounted to 3 nM. Also, it took 1.09 nM to reach a half-maximal effect in series [2] (EC50). In addition, the “plasma stability as compared to native GLP-1” value is given as “increased plasma stability” in the series “Plasma stability” and “increased plasma stability” in the series “Plasma stability” (second, narrower list of b152).
Take `CC[C@H](C)[C@H](NC(=O)[C@H](Cc1ccccc1)NC(=O)[C@H](CCC(=O)O)NC(=O)[C@H](CCCCN)NC(=O)[C@H](C)NC(=O)[C@H](C)NC(=O)[C@H](CCC(N)=O)NC(=O)CNC(=O)[C@H](CCC(=O)O)NC(=O)[C@H](CC(C)C)NC(=O)[C@H](Cc1ccc(O)cc1)NC(=O)[C@H](CO)NC(=O)[C@H](CO)NC(=O)[C@@H](NC(=O)[C@H](CC(=O)O)NC(=O)[C@H](CO)NC(=O)[C@@H](NC(=O)[C@H](Cc1ccccc1)NC(=O)[C@@H](NC(=O)CNC(=O)[C@H](CCC(=O)O)NC(=O)[C@H](C)NC(=O)[C@@H](N)Cc1c[nH]cn1)[C@@H](C)O)[C@@H](C)O)C(C)C)C(=O)N[C@@H](C)C(=O)N[C@@H](Cc1c[nH]c2ccccc12)C(=O)N[C@@H](CC(C)C)C(=O)N[C@H](C(=O)N[C@@H](CCCCN)C(=O)NCC(=O)N[C@@H](CCCNC(=N)N)C(N)=O)C(C)C` [Cmpd 3521, reference compound]: the “GLU LOWERING AUC240 @80 nmol/kg” value in the series on NH/Swiss mice (80 nmol/kg) is listed as −9% @. Further, the “FOOD INTAKE at 60 min” value with NIH:Swiss mice (dose 1 mg/kg) is −27%. Further, in series [3], the “baseline plasma lactate level” value was “attenuated baseline plasma lactate level” and the “left ventricle chamber size (LVEDD, LVESD)” value is given as “attenuates enlargement of left ventricle chamber size”. Besides, in series [3] (12 hour fasting), the “insulin resistance / insulin sensitivity (fasting insulin, glucose, HOMA)” value was “attenuates insulin resistance and improves insulin sensitivity”.
Take `CC[C@H](C)[C@H](NC(=O)[C@H](CC(C)C)NC(=O)[C@H](Cc1c[nH]c2ccccc12)NC(=O)[C@H](CCC(=O)O)NC(=O)[C@@H](NC(=O)[C@H](Cc1ccccc1)NC(=O)[C@H](CC(C)C)NC(=O)[C@H](CCCNC(=N)N)NC(=O)[C@@H](NC(=O)[C@H](C)NC(=O)[C@H](CCCCN)NC(=O)[C@H](CCC(=O)O)NC(=O)[C@H](CCC(=O)O)NC(=O)[C@H](CC(C)C)NC(=O)[C@H](CCC(N)=O)NC(=O)[C@H](CCCCN)NC(=O)[C@H](CO)NC(=O)[C@H](CC(C)C)NC(=O)[C@H](CC(=O)O)NC(=O)[C@H](CO)NC(=O)[C@@H](NC(=O)[C@H](Cc1ccccc1)NC(=O)[C@@H](NC(=O)CNC(=O)[C@H](CCC(=O)O)NC(=O)CNC(=O)[C@@H](N)Cc1c[nH]cn1)[C@@H](C)O)[C@@H](C)O)C(C)C)[C@@H](C)CC)C(=O)N[C@@H](CCC(N)=O)C(=O)NCC(=O)NCC(=O)N1CCC[C@H]1C(=O)N[C@@H](CO)C(=O)N[C@@H](CCCCN)C(=O)N[C@@H](CCC(=O)O)C(=O)N[C@H](C(=O)N[C@H](C(=O)N[C@@H](CO)C(=O)O)[C@@H](C)CC)[C@@H](C)CC` [Cmpd 5103]: the “GLU LOWERING AUC240 @2 nmol/kg” value with NH/Swiss mice (2 nmol/kg, change in blood glucose relative to vehicle) is on record as −17%. In the series on NIH:Swiss mice (dose 10 nmol/kg), the “FOOD INTAKE at 60 min” value was −42%.
The molecule `CC[C@H](C)[C@H](NC(=O)[C@@H]1CCCN1C(=O)[C@@H](NC(=O)CNC(=O)CNC(=O)CNC(=O)[C@H](CCCNC(=N)N)NC(=O)CNC(=O)[C@H](CCCCN)NC(=O)[C@@H](NC(=O)[C@H](CC(C)C)NC(=O)[C@H](Cc1c[nH]c2ccccc12)NC(=O)[C@H](C)NC(=O)[C@@H](NC(=O)[C@H](Cc1ccccc1)NC(=O)[C@H](CCC(=O)O)NC(=O)[C@H](CCCCN)NC(=O)[C@H](C)NC(=O)[C@H](C)NC(=O)[C@H](CCC(N)=O)NC(=O)CNC(=O)[C@H](CCC(=O)O)NC(=O)[C@H](CC(C)C)NC(=O)[C@H](Cc1ccc(O)cc1)NC(=O)[C@H](CO)NC(=O)[C@H](CO)NC(=O)[C@@H](NC(=O)[C@H](CC(=O)O)NC(=O)[C@H](CO)NC(=O)[C@@H](NC(=O)[C@H](Cc1ccccc1)NC(=O)[C@@H](NC(=O)CNC(=O)[C@H](CCC(=O)O)NC(=O)[C@H](C)NC(=O)[C@@H](N)Cc1c[nH]cn1)[C@@H](C)O)[C@@H](C)O)C(C)C)[C@@H](C)CC)C(C)C)[C@@H](C)CC)C(N)=O` [Cmpd 4957] gave a half-maximal inhibitory concentration (IC50) in series [1] of 0.1 nM. Further, it took 0.51 nM to reach a half-maximal effect in series [2] (EC50).
For HAEGTFTSDVSSYLEGQAAKEFIAWLVKGRGGGIPI (modifications not checked) [Cmpd 4957], the cAMP, CYCLASE GLP/GIP/CT (RIN) EC50 in series [4] was found to be 0.51 nM. Further, the IC50 in series [5] came out at 0.1 nM.
HAEGTFTSDVSSYLEGQAAKEFIAWLVKGRGGGGIPI (modifications not checked) [Cmpd 4887] returned a cAMP, CYCLASE GLP/GIP/CT (RIN) EC50 in series [4] of 0.22 nM. This molecule also gave an IC50 in series [5] of 0.17 nM.
Turning to HAEGTFTSDVSSYLEGQAAKEFIAWLVKGRPSGGGIPI (modifications not checked) [Cmpd 4888], in series [4], the cAMP, CYCLASE GLP/GIP/CT (RIN) EC50 is 0.17 nM. Further, the IC50 in series [5] was 0.13 nM.

Values taken from US20100029554A1, “Composition and Methods for Treatment of Congestive Heart Failure” (Amylin Pharmaceuticals, Inc., priority 2006, published 2010).
